Results: patent US9057727B2, “Screening methods using G-protein coupled receptors and related compositions” (The General Hospital Corporation, priority 2007, dated 2015)
Peptide text beside a SMILES is read from it.

Assays:
human PTH1 receptor = target: T1, human PTH1 receptor (Homo sapiens, UniProt Q03431); test: cAMP signaling dose-response in HKRK-B7 cells; type: cell-based; conditions: 15 min, 37° C., IBMX
T1 construct: expressed in transfected cells
T1 sequence (Q03431 27-593): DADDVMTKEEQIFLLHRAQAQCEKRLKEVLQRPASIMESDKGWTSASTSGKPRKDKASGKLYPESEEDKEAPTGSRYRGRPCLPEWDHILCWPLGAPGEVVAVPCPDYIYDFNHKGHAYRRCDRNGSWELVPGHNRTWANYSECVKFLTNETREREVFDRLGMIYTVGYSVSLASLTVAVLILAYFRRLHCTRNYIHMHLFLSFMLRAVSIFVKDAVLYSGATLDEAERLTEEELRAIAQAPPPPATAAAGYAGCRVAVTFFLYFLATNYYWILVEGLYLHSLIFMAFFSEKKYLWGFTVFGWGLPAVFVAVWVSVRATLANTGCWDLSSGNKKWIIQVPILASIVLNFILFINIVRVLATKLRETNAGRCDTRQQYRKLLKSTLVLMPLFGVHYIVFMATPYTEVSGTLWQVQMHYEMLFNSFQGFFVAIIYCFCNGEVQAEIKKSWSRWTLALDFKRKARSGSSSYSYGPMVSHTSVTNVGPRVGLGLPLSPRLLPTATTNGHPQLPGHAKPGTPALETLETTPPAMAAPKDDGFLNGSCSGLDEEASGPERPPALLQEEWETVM
Experimental: In the cAMP experiments of FIG. 14, HKRK-B7 were seeded in 96 well plates at 1×10^5 cells/well and incubated overnight. On the following day, the cells were washed once with […] of binding buffer (50 mM Tris-HCl, pH 7.7, 100 mM NaCl, 5 mM KCl, 2 mM CaCl2, 5% heat-inactivated horse serum, 0.5% heat-inactivated fetal bovine serum), followed by addition of 100 μl cAMP assay buffer (DMEM, 2 mM IBMX, 1 mg/ml bovine serum albumin, 35 mM Hepes-NaOH, pH 7.4) on ice. […] After removing the medium, the plates were placed on powdered dry ice to freeze the cells and then removed from dry ice. The cells were thawed with 50 μl of 50 mM HCl and frozen again on dry ice. The level of intracellular cAMP was measured with a commercially available cAMP EIA kit (Biotrack cAMP EIA system, GE Healthcare).
HKRK-B, which are LLC-PK1 cells over-expressing human PTH1 receptor at levels of 9.5×10^5 per cell were used in the cAMP signaling assay. The cells were cultured at 37° C. in a humidified atmosphere containing 5% CO2 in Dulbecco's modified Eagle's medium (DMEM), supplemented with 10% fetal bovine serum (Hyclone), 100 units/ml penicillin G, and 100 μg/ml streptomycin sulfate (Invitrogen Corp). […] All peptides were dissolved at 1 mM in 10 mM acetic acid, and stored at −80° C. The cAMP stimulation assay was performed as described above for HKRK-B7 cells. […] Cells were treated for 15 minutes at 37° C. with varying concentrations of ligands in the presence of IBMX.

[1] = Calcemic action in normal rats (blood ionized calcium); type: in vivo; conditions: normal and TPTX rats
Experimental: Binding to the rat PTHR was also measured in vitro.
Concentration of peptides in stock solution were adjusted by dilution with 25 mmol/L phosphate-citrate buffer/100 mmol/L NaCl/0.05% Tween 80 (pH. 5.0) (PC-buffer). All peptides were allowed to stand on ice immediately before administration.
Female SD-IGS rat at 8 weeks of age (Charles River Japan, Inc.) were measured for their body weight. Blood was collected by tail vein into heparinized capillary tubes and measured for baseline levels of blood ionized calcium and pH using Ca^++/pH analyzer (Model 634/Bayer Medical Ltd.) to give the corrected level of ionized calcium at pH 7.4 for each sample. Rats received intravenous administration of each peptides at a dose of 1 ml/kg. Peptides were administered to groups of 6 rats each respectively. At 1, 2, 4, or 6 hours after administration, blood was collected by tail vein to monitor the time course of corrected blood ionized calcium levels. The time course of changes in corrected ionized calcium levels, compared to vehicle, and are expressed as means+/−standard error.

human PTH receptor = target: T2, human PTH receptor (Homo sapiens, UniProt Q03431); test: cAMP in HRKRK-B7 cells EC50 (nM)
T2 construct: expressed in transfected cells
Source text: Table printed on a drawing sheet, Figure 25
Head of the field: cAMP in HRKRK-B7 cells EC50 (nM)
First copying reader's note: The column head prints the cell line as HRKRK-B7 while the title prints HKRK-B7.

[2] = target: T3, hPTH1R (R0 form of the human PTH receptor) (Homo sapiens, UniProt Q03431); test: R0 memb: hPTH1R*PTH( 1-34)+GTPgS
T3 construct: expressed in transfected cells; host or cells: COS-7, transient (Fugene-6)

[3] = target: hPTH1R (RG form of the human PTH receptor); test: RG memb: hPTH1R+dnGS *M-PTH(1-15)
[4] = target: T4, human PTHR, G protein-uncoupled conformation (R^0) (Homo sapiens, UniProt Q03431); test: Competition binding to R0 conformation of hPTHR (COS-7 membranes, GTPγS, 125I-PTH(1-34) tracer); conditions: human PTH receptor on COS-7 cell membranes
T4 construct: expressed in transfected cells; host or cells: COS-7, transient (Fugene-6)
T4 sequence (Q03431 27-593): T1 sequence (Q03431 27-593)
Procedure, shortened: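 Bound versus free radioligand was separated by vacuum filtration after 90 min incubation of COS-7 hPTHR membranes (20-100 μg/mL) with tracer and competing peptides. Non-specific binding came from a saturating unlabeled analog.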

SMILES	cAMP in HKRK-B7 cells Max (human PTH1 receptor) [pm/well]	calcemic action compared with control peptides, in words [1]	EC50 (human PTH receptor) [pM]	IC50 [2] [pM]	IC50 [3] [pM]	R0/RG ratio [4]
CC[C@H](C)[C@H](NC(=O)[C@H](CCC(=O)O)NC(=O)[C@H](C)NC(=O)[C@@H](NC(=O)[C@H](C)N)C(C)C)C(=O)N[C@@H](CCC(N)=O)C(=O)N[C@@H](CC(C)C)C(=O)N[C@@H](CCSC)C(=O)N[C@@H](Cc1c[nH]cn1)C(=O)N[C@@H](CCC(N)=O)C(=O)N[C@@H](CCCNC(=N)N)C(=O)N[C@@H](C)C(=O)N[C@@H](CCCCN)C(=O)N[C@@H](Cc1c[nH]c2ccccc12)C(=O)N[C@@H](CC(C)C)C(=O)N[C@@H](CC(N)=O)C(=O)N[C@@H](CO)C(=O)N[C@@H](CCSC)C(=O)N[C@@H](CCCNC(=N)N)C(=O)N[C@@H](CCCNC(=N)N)C(=O)N[C@H](C(=O)N[C@@H](CCC(=O)O)C(=O)N[C@@H](Cc1c[nH]c2ccccc12)C(=O)N[C@@H](CC(C)C)C(=O)N[C@@H](CCCNC(=N)N)C(=O)N[C@@H](CCCCN)C(=O)N[C@@H](CCCCN)C(=O)N[C@@H](CC(C)C)C(=O)N[C@@H](CCC(N)=O)C(=O)N[C@@H](CC(=O)O)C(=O)N[C@H](C(=O)N[C@@H](Cc1c[nH]cn1)C(=O)N[C@@H](CC(N)=O)C(=O)N[C@@H](Cc1ccccc1)C(=O)O)C(C)C)C(C)C [Mc-PTH34(R19), Mc-hPTH(1-34)OH] (H-AVAEIQLMHQRAKWLNSMRRVEWLRKKLQDVHNF-OH; N-terminus assumed)	65.5	–	–	–	–	–
CC[C@H](C)[C@H](NC(=O)[C@H](CCC(=O)O)NC(=O)[C@H](C)NC(=O)[C@@H](NC(=O)[C@H](Cc1c[nH]cn1)NC(=O)[C@@H](NC(=O)[C@H](CCC(=O)O)NC(=O)[C@H](C)NC(=O)[C@@H](NC(=O)[C@H](CC(C)C)NC(=O)[C@H](Cc1c[nH]cn1)NC(=O)[C@H](Cc1c[nH]cn1)NC(=O)[C@H](CC(C)C)NC(=O)[C@H](Cc1ccccc1)NC(=O)[C@H](CCC(=O)O)NC(=O)[C@@H](NC(=O)[C@H](CCCNC(=N)N)NC(=O)[C@H](CCC(=O)O)NC(=O)[C@H](CCSC)NC(=O)[C@H](CO)NC(=O)[C@H](CC(N)=O)NC(=O)[C@H](CC(C)C)NC(=O)[C@H](Cc1c[nH]cn1)NC(=O)[C@H](CCCCN)NC(=O)CNC(=O)[C@H](CC(C)C)NC(=O)[C@H](CC(N)=O)NC(=O)[C@H](Cc1c[nH]cn1)NC(=O)[C@H](CCSC)NC(=O)[C@H](CC(C)C)NC(=O)[C@H](CCC(N)=O)NC(=O)[C@@H](NC(=O)[C@H](CCC(=O)O)NC(=O)[C@H](CO)NC(=O)[C@@H](NC(=O)[C@@H](N)CO)C(C)C)[C@@H](C)CC)C(C)C)[C@@H](C)CC)[C@@H](C)CC)[C@@H](C)O)C(=O)O [PTH(1-22)/PTHrP(23-36)] (H-SVSEIQLMHNLGKHLNSMERVEFLHHLIAEIHTAEI-OH)	–	weaker calcemic actions than did either PTH(1-34) or PTHrP(1-36) control peptides	890	16800	220	–
CC[C@H](C)[C@H](NC(=O)[C@H](CCC(=O)O)NC(=O)[C@H](C)NC(=O)[C@@H](NC(=O)[C@H](Cc1c[nH]cn1)NC(=O)[C@@H](NC(=O)[C@H](CCC(=O)O)NC(=O)[C@H](C)NC(=O)[C@@H](NC(=O)[C@H](CC(C)C)NC(=O)[C@H](CCCCN)NC(=O)[C@H](CCCNC(=N)N)NC(=O)[C@H](CC(C)C)NC(=O)[C@H](Cc1c[nH]c2ccccc12)NC(=O)[C@H](CCC(=O)O)NC(=O)[C@@H](NC(=O)[C@H](CCCNC(=N)N)NC(=O)[C@H](CCC(=O)O)NC(=O)[C@H](CCSC)NC(=O)[C@H](CO)NC(=O)[C@H](CC(N)=O)NC(=O)[C@H](CC(C)C)NC(=O)[C@H](Cc1c[nH]cn1)NC(=O)[C@H](CCCCN)NC(=O)CNC(=O)[C@H](CC(C)C)NC(=O)[C@H](CC(N)=O)NC(=O)[C@H](Cc1c[nH]cn1)NC(=O)[C@H](CCSC)NC(=O)[C@H](CC(C)C)NC(=O)[C@H](CCC(N)=O)NC(=O)[C@@H](NC(=O)[C@H](CCC(=O)O)NC(=O)[C@H](CO)NC(=O)[C@@H](NC(=O)[C@@H](N)CO)C(C)C)[C@@H](C)CC)C(C)C)[C@@H](C)CC)[C@@H](C)CC)[C@@H](C)O)C(=O)O [PTH(1-26)/PTHrP(27-36), hPTH(1-26)/PTHrP(27-36)] (H-SVSEIQLMHNLGKHLNSMERVEWLRKLIAEIHTAEI-OH)	–	weaker calcemic actions than did either PTH(1-34) or PTHrP(1-36) control peptides	1070	7900	310	–
CC[C@H](C)[C@H](NC(=O)[C@H](CCC(=O)O)NC(=O)[C@H](C)NC(=O)[C@@H](NC(=O)[C@H](C)N)C(C)C)C(=O)N[C@@H](CCC(N)=O)C(=O)N[C@@H](CC(C)C)C(=O)N[C@@H](CCSC)C(=O)N[C@@H](Cc1c[nH]cn1)C(=O)N[C@@H](CCC(N)=O)C(=O)N[C@@H](CCCNC(=N)N)C(=O)NCC(=O)N[C@@H](CCCCN)C(=O)N[C@@H](Cc1c[nH]cn1)C(=O)N[C@@H](CC(C)C)C(=O)N[C@@H](CC(N)=O)C(=O)N[C@@H](CO)C(=O)N[C@@H](CCSC)C(=O)N[C@@H](CCC(=O)O)C(=O)N[C@@H](CCCNC(=N)N)C(=O)N[C@H](C(=O)N[C@@H](CCC(=O)O)C(=O)N[C@@H](C)C(=O)N[C@@H](CC(C)C)C(=O)N[C@@H](CCCNC(=N)N)C(=O)N[C@@H](CCCCN)C(=O)N[C@@H](CCCCN)C(=O)N[C@@H](CC(C)C)C(=O)N[C@@H](CCC(N)=O)C(=O)N[C@@H](CC(=O)O)C(=O)N[C@H](C(=O)N[C@@H](Cc1c[nH]cn1)C(=O)N[C@@H](CC(N)=O)C(=O)N[C@@H](Cc1ccccc1)C(=O)O)C(C)C)C(C)C [[A1,3,23,Q10,R11]-PTH(1-34)OH, [A^1,A^3,A^23,Q^10,R^11]-PTH(1-34)OH]	63.8	–	–	–	–	–
CC[C@H](C)[C@H](NC(=O)[C@H](CCC(=O)O)NC(=O)[C@H](C)NC(=O)[C@@H](NC(=O)[C@H](C)N)C(C)C)C(=O)N[C@@H](CCC(N)=O)C(=O)N[C@@H](CC(C)C)C(=O)N[C@@H](CCSC)C(=O)N[C@@H](Cc1c[nH]cn1)C(=O)N[C@@H](CC(N)=O)C(=O)N[C@@H](CC(C)C)C(=O)NCC(=O)N[C@@H](CCCCN)C(=O)N[C@@H](Cc1c[nH]cn1)C(=O)N[C@@H](CC(C)C)C(=O)N[C@@H](CC(N)=O)C(=O)N[C@@H](CO)C(=O)N[C@@H](CCSC)C(=O)N[C@@H](CCC(=O)O)C(=O)N[C@@H](CCCNC(=N)N)C(=O)N[C@H](C(=O)N[C@@H](CCC(=O)O)C(=O)N[C@@H](C)C(=O)N[C@@H](CC(C)C)C(=O)N[C@@H](CCCNC(=N)N)C(=O)N[C@@H](CCCCN)C(=O)N[C@@H](CCCCN)C(=O)N[C@@H](CC(C)C)C(=O)N[C@@H](CCC(N)=O)C(=O)N[C@@H](CC(=O)O)C(=O)N[C@H](C(=O)N[C@@H](Cc1c[nH]cn1)C(=O)N[C@@H](CC(N)=O)C(=O)N[C@@H](Cc1ccccc1)C(=O)O)C(C)C)C(C)C [[A1,3,23]-PTH(1-34)OH, [A^1,A^3,A^23]-PTH(1-34)OH] (H-AVAEIQLMHNLGKHLNSMERVEALRKKLQDVHNF-OH; N-terminus assumed)	66.6	–	–	–	–	4291
